From patent publication US8557823B2, “Family of PFKFB3 inhibitors with anti-neoplastic activities” (Advanced Cancer Therapeutics, LLC, priority 2007, dated 2013)

What was measured:
[1] = test system: PFKFB3 over-expressing Jurkat cells; experiment: Growth inhibition of Jurkat cells over-expressing PFKFB3 (Tet-ON, doxycycline); type: cell-based; details: Homo sapiens, 48 hours
Procedure: (§1) FIG. 6D is a bar graph showing the anti-proliferative effects of 3PO in Jurkat cells engineered to over-express PFKFB3 through doxycylin treatment utilizing the Tet-on system (+PFKFB3, striped bars). Twenty-four hours prior to 3PO treatment, 1 μg/mL of doxycyclin is incubated with Jurkat cells containing a PFKFB3-expressing vector in order to induce PFKFB3 protein levels. Control cells (−PFKFB3, solid bars) containing an empty vector were similarly treated with doxycyclin and served as background PFKFB3 expression. Both cell types were subsequently incubated with increasing concentrations of 3PO (1, 3, 10, or 33 μM) or vehicle (V), and viable cells were analyzed after 48 hours. The bars represent the mean±STD of triplicate values from a representative experiment.
FLAG-PFKFB3 containing the complete PFKFB3 coding sequence and FLAG-epitope at its N-terminus was subcloned into the BamHI/HindIII restriction sites within the retroviral Tet response vector pRevTRE (Clontech, Mountain View, Calif., United States of America). Recombinant retrovirus was produced by Lipofectamine-mediated (Invitrogen, Carlsbad, Calif., United States of America) transfection of the pRevTRE-FLAG-PFKFB3 construct into PT67 packaging cell lines. […]
(§2) Cells were collected 48 hours post-treatment, and cell number and viability were determined by trypan blue exclusion. […]

[2] = test system: HL-60 leukemia cells; experiment: In vitro growth inhibition, HL-60; type: cell-based, human; details: Homo sapiens, 50% of vehicle control cell growth
Procedure: (§3) The K562, HL-60, MDA-MB231, and melanoma (CRL-11174) human cancer cell lines were purchased from ATCC (American Tissue Type Culture Collection, Manassas, Va., United States of America). HeLa, A549, Lewis Lung Carcinoma, MDA-MB231, and melanoma cells were grown in Dulbecco's Modified Eagle Medium (DMEM) (Hyclone, Logan, Utah, United States of America) supplemented with 10% fetal bovine serum (Hyclone, Logan, Utah, United States of America) and 50 μg/mL gentamicin sulfate (Invitrogen, Carlsbad, Calif., United States of America). The HL-60, K562, and Jurkat cell lines were grown in RPMI-1640 medium (Hyclone, Logan, Utah, United States of America) supplemented with 10% fetal bovine serum and 50 μg/mL gentamicin sulfate. […]
as §2

[3] = test system: Lewis Lung Carcinoma xenografts; experiment: F2,6BP in Lewis lung carcinoma tumor xenografts; type: in vivo, mice; details: 0.07 mg/g i.p., four hours post-injection
Procedure: C57Bl/6 female mice (20 g) were injected subcutaneously with 1×10^6 Lewis lung carcinoma cells. When the xenografts were measured to have a mass of between 150 and 180 mg, the mice were split into two groups. One group was injected i.p. with 0.07 mg/g of compound 1. The other group was used as a control and injected i.p. with 50 μL DMSO. Four hours post-injection, tumors were removed and homogenized in equal volumes of 0.1 M and 0.05 M NaOH. F2,6BP assays were performed as previously described. See Van Shaftingen et al., Eur. J. Biochem, 129, 191-195 (1982). […] F2,6BP concentration in the compound 1-treated mouse xenografts was 8.5±1.7 pmol/mg, while in the control mouse xenografts' F2,6BP concentration was 13.1±1.9 pmol/mg.

[4] = Toxicity studies, highest tolerated dose; type: in vivo, mice; details: intraperitoneal (IP) injection in DMSO
[5] = test system: Jurkat cells expressing unaltered PFKFB3 levels; experiment: Growth inhibition of control Jurkat cells (empty vector, doxycycline); type: cell-based; details: Homo sapiens, 48 hours
Procedure: as §1
All cell lines were plated at 1×10^5 cells/well in the appropriate medium. For suspension cells, increasing concentrations of 1 were added immediately to the medium, whereas, compound 1 treatment was initiated the following day for adherent cell lines. For dose-dependent studies, compound 1 was added in increasing concentrations for 36 hours. For time-dependent studies, 10 μM of compound 1 was added at time 0, 4, 8, 16, 24, or 36 hours. […]
as §2

[6] = test system: LLC (Lewis Lung Carcinoma) cells; experiment: In vitro growth inhibition, LLC; type: cell-based; details: mouse LLC
Procedure: as §3, §2

[7] = test system: Jurkat leukemia cells; experiment: In vitro growth inhibition, Jurkat; type: cell-based; details: Homo sapiens, 50% of vehicle control cell growth
Procedure: as §3, §2

Compound: O=C(/C=C/c1cccnc1)c1ccncc1 [Compound 1, 3-(3-pyridinyl)-1-(4-pyridinyl)-2-propen-1-one]
- IC50 [1]: 19.3 µM
- IC50 [2]: 4.5 µM
- F2,6BP concentration in tumor xenografts [3]: 8.5 ± 1.7 pmol/mg
- highest tolerated dose producing no phenotypic side effects [4]: 0.07 mg/g
- IC50 [5]: 8.9 µM
- IC50 [6]: 19 µM
- IC50 [7]: 1.4 µM
